From patent US20220395500A1, “SMALL MOLECULE ACTIVATORS OF INTERFERON REGULATORY FACTOR 3 AND METHODS OF USE THEREOF” (Neuralexo, Inc., priority 2020, published 2022)
pEC50: −log10 of the molar value. Read-outs that look alike come from different tables or passages of the source.

Columns and labels:
[1] = tested on: IRF-Lucia luciferase reporter (ISRE) in J774-Dual cells; experiment: J774-Dual IRF-Lucia luciferase reporter assay (ISRE activation); assay type: cell-based, mouse
Procedure, shortened: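 Eight-point dose-response in J774-Dual mouse macrophage-like cells gave EC50, plus CC50 by in-plate CellTiter-Glo, and ISRE:NF-κB ratios. Cells plated 24 h at 37 °C, 5% CO2 without differentiation; supernatant Lucia luciferase and SEAP measured with QUANTI-Luc and QUANTI-Blue.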

[2] = tested on: IP-10 in human monocyte-derived macrophages; experiment: IP-10 induction in human monocyte-derived macrophages (ELISA); assay type: cell-based; conditions: dose response
Source text: FIG. 24 is a graph of NA-42 dose dependent IP-10 induction in human monocyte-derived macrophages. IP-10 expression was monitored by Human CXCL10/IP10 ELISA (R&D Systems, Minneapolis, Minn.) and is expressed as pg/ml. Shown are group means+/−standard deviation; ****p<0.0001.
FIG. 25 is a graph of ND-13 dose dependent IP-10 induction in human monocyte-derived macrophages. IP-10 expression was monitored by Human CXCL10/IP10 ELISA (R&D Systems, Minneapolis, Minn.) and is expressed as pg/ml. Shown are group means+/−standard deviation; ****p<0.0001.
As discussed above with regard to Example 19, target specificity of chemical entities corresponding to the ND and NA chemofamilies was examined by dose-dependent expression of IP-10 in mBMDMs. In this example, 23, target specificity of chemical entities corresponding to the ND and NA chemofamiles was examined by determining dose-dependent expression of IP-10 in human primary cells, specifically monocyte-derived macrophages. […] For FIGS. 24-25, IP-10 expression was monitored by Human CXCL10/IP10 ELISA (R&D Systems, Minneapolis, Minn.), and is expressed at FIGS. 24-25 as pg/ml.

[3] = tested on: IRF3 activating pathway (TRIF, IPS1, STING) in THF cell lines; experiment: Interferon dependent luciferase reporter in telomerized human fibroblasts (THF) lacking adapter molecules; assay type: cell-based; conditions: WT THF, IPS1 KO, 23 μM compound or 313 ng/ml LPS
Description: Shown is fold-change of an interferon dependent luciferase reporter expressed in various telomerized human fibroblasts (THF) cell lines lacking key adapter molecules in the IRF3 activating pathway (WT THF, IPS1 KO, STING KO, and TRIF KO) in response to different treatments (untreated, Sendai 1/100, 313 ng/ml LPS, 23 μM NA-42). Shown are group means+/−SEM.
Select chemical entities corresponding to the NA and ND chemofamilies were examined as to their TRIF-dependency of IRF3 induction. TRIF, or TIR-domain-containing adapter-inducing interferon-β, is an adapter in responding to activation of toll-like receptors (TLRs). For reference, FIG. 26A illustrates a cell-signalling pathway including TRIF, along with TLR4, TLR3, IPS1, STING and IRF3. […] The treatment with Sendai 1/100 serves as an IPS1-dependent control, and the treatment with 313 ng/ml LPS serves as a TRIF-dependent control. As shown at FIG. 26B, treatment with 313 ng/ml LPS induces robust IRF3 induction in WT THF, IPS1 KO, and STING KO, but not in the TRIF KO, showing that LPS induction is TRIF-dependent. […] Assessment of fold change IRF3 was determined via measurement of the interferon dependent luciferase reporter.

[4] = Mus musculus, J774, Mouse Reporter Cell Line, 8-point dose response, read-out: J774 IRF EC50
[5] = Mouse Reporter Cell Line J774, at peak
[6] = Mus musculus, J774, Mouse Reporter Cell Line J774, read-out: J774 IRF EC50

Row | pEC50 [1, 4] | pEC50 [1, 6] | Compound | J774 IRF % activation at peak ([1]; Mouse Reporter Cell Line) | J774 IRF % activation at peak [1, 5] | other results
1 | 5.33 |  | COc1cccc(COc2ccc(C(=O)Nc3ccc(N4CCN(C(=O)c5cccs5)CC4)cc3)cc2)c1 [NA-24, 4-((3-methoxybenzyl)oxy)-N-(4-(4-(thiophene-2-carbonyl)piperazin-1-yl)phenyl)benzamide] | 111.2% |  | 
2 | 4.98 |  | O=C(Nc1ccc(N2CCN(C(=O)c3cccs3)CC2)cc1)c1ccc(-c2ccccc2)nc1 [NA-41] | 37.71% |  | 
3 |  | 5.05 | COc1ccc(C(=O)Nc2nc(-c3cc4ccccc4oc3=O)cs2)cc1 [ND-1] |  | 28.40% | 
4 | 5.51 |  | O=C(Nc1ccc(N2CCN(C(=O)c3cccs3)CC2)cc1)c1ccc(OCc2ccccc2)nc1 [NA-59] | 150.5% |  | 
5 | 4.84 |  | Cc1cc(NC(=O)c2sc3cc(Cl)ccc3c2Cl)ccc1NC(=O)c1ccco1 [NC-2] | 4.6% |  | 
6 |  | 4.72 | COCOc1ccc2oc(-c3ccc(C)c([N+](=O)[O-])c3)nc2c1 [ND-96] |  | 5.389% | 
7 |  | ~5.32 | O=C(Nc1ccc(N2CCOCC2)c(C(=O)Nc2ccc(OCc3ccccc3)cc2)c1)c1cccs1 [NB-18] |  | 2.303% | 
8 | 6.00 |  | O=C(Nc1ccc(N2CCN(C(=O)c3cccs3)CC2)cc1)c1cccc2c(Br)cccc12 [NA-21, 5-bromo-N-{4-[4-(2-thienylcarbonyl)-1-piperazinyl]phenyl}-1-naphthamide] | 38.86% |  | 
9 |  |  | COc1ccc(C(=O)Nc2cc(-c3nc4ccccc4s3)ccc2C)cc1[N+](=O)[O-] [ND-38] |  | 114% | pEC50 ([1]; Mouse Reporter Cell Line J774, read-out: J774 IRF EC50): 5.12
10 |  | 5.23 | COc1ccc(C(=O)Nc2cc(-c3nc4ccccc4s3)ccc2C)cc1[N+](=O)[O-] [ND52, N-[5-(1,3-benzothiazol-2-yl)-2-methylphenyl]-4-methoxy-3-nitrobenzamide] |  | 131.7% | 
11 | 5.28 |  | O=C(Nc1ccc(N2CCN(C(=O)c3cccs3)CC2)cc1)c1ccc(Br)cc1 [NA-14] | 4.471% |  | 
12 |  | 5.32 | COc1ccc(C(=O)Nc2cc(-c3nc4cc(C(C)C)ccc4o3)ccc2C)cc1[N+](=O)[O-] [ND-2] |  | 141.80% | 
13 | 5.38 |  | O=C(Nc1ccc(N2CCN(C(=O)c3cccs3)CC2)cc1)c1sc2cc(Cl)ccc2c1Cl [NA-20] | 29.98% |  | 
14 |  | 5.07 | Cc1ccc(NC(=O)c2cc(NC(=O)Cc3ccccc3)ccc2N2CCOCC2)cc1Cl [NB-3] |  | 2.603% | 
15 |  | ~4.89 | CC(C)CC(=O)Nc1ccc2oc(-c3cccc(I)c3)nc2c1 [ND-5] |  | 12.45% | 
16 | 4.93 |  | O=C(Nc1ccc(N2CCN(C(=O)c3cccs3)CC2)cc1)c1ccc(-c2cc3ccccc3oc2=O)cc1 [NA-32] | 77.58% |  | 
17 | ~5.51 |  | O=C(Nc1ccc(N2CCN(C(=O)c3ccsc3)CC2)cc1)c1ccc(OCc2ccccc2)nc1 [NA-1] | 67.54% |  | 
18 | 5.58 |  | O=C(Nc1ccc(N2CCN(C(=O)c3cccs3)CC2)cc1)c1ccc(OCc2cccc(Cl)c2)cc1 [NA-33] | 15.46% |  | 

Row | pEC50 [1, 4] | pEC50 [1, 6] | Compound | J774 IRF % activation at peak ([1]; Mouse Reporter Cell Line) | J774 IRF % activation at peak [1, 5] | other results
19 | 6.09 |  | O=C(Nc1ccc(N2CCN(C(=O)c3cccs3)CC2)cc1)c1ccc(Cl)c2ccccc12 [NA13] | 3.434% |  | 
20 | 5.01 |  | O=C(Nc1ccc(N2CCN(C(=O)c3cccs3)CC2)cc1)c1ccc(-c2ccccc2)cn1 [NA-39] | 77.89% |  | 
21 |  | 5.06 | Cc1ccc(NC(=O)c2cc(NC(=O)c3cccs3)ccc2N2CCOCC2)cc1 [NB-17] |  | 16.67% | 
22 |  | 5.39 | COCOc1ccc2oc(-c3ccc(C)c(NC(=O)c4ccc(OC)c([N+](=O)[O-])c4)c3)nc2c1 [ND-95, 4-methoxy-N-(5-(5-(methoxymethoxy)benzo[d]oxazol-2-yl)-2-methylphenyl)-3-nitrobenzamide] |  | 98.11% | 
23 | 5.13 |  | COc1ccc(C(=O)Nc2ccc(OCc3ccccc3)cc2)cc1[N+](=O)[O-] [NA-44] | 2.085% |  | 
24 | ~5.48 |  | CCOc1ccc(C(=O)Nc2ccc(N3CCN(C(=O)c4cccs4)CC3)cc2)cc1Br [NA-30] | 2.95% |  | 
25 |  | 5.18 | Cc1ccc(NC(=O)c2cc(NC(=O)c3cccs3)ccc2N2CCOCC2)cc1Br [NB-23] |  | 72.79% | 
26 |  | 5.25 | Cc1ccc(NC(=O)c2cc(NC(=O)c3cccs3)ccc2N2CCOCC2)cc1Cl [NB-8] |  | 52.86% | 
27 |  |  | COc1ccc(C(=O)Nc2cc(-c3nc4cc(C)c(C)cc4o3)ccc2C)cc1[N+](=O)[O-] [ND-13, N-(5-(5,6-dimethylbenzo[d]oxazol-2-yl)-2-methylphenyl)-4-methoxy-3-nitrobenzamide] |  |  | IP-10 induction in human monocyte-derived macrophages [2]: dose-dependent IP-10 induction; TRIF-dependency of IRF3 induction [3]: TRIF-dependent
28 | ~4.99 |  | O=C(Nc1ccc(N2CCN(C(=O)c3cccs3)CC2)cc1)c1ccc(-c2ccncc2)cc1 [NA-38] | 2.98% |  | 
29 |  | 5.45 | COc1ccc(-c2nc3cc(C(C)C)ccc3o2)cc1NC(=O)c1ccc(C)c([N+](=O)[O-])c1 [ND-16] |  | 83.02% | 
30 |  |  | Cc1ccc2c(=O)c3cccc(CC(=O)O)c3oc2c1C [DMXAA, 5,6-dimethylxanthenone-4-acetic acid] |  |  | pEC50 ([1]; Mus musculus, J774-Dual control compound, read-out: EC50 ISRE activation): 4.62
31 |  | 5.18 | Cc1ccc(NC(=O)c2cc(NC(=O)c3ccccc3)ccc2N2CCOCC2)cc1Cl [NB-1] |  | 54.52% | 
32 | 5.36 |  | Cc1ccc(COc2ccc(C(=O)Nc3ccc(N4CCN(C(=O)c5cccs5)CC4)cc3)cc2)cc1 [NA-25] | 18.01% |  | 
33 |  | ~5.00 | Cc1ccc(-c2nc3ccccc3s2)cc1NC(=O)c1cccc(Cl)c1 [ND-80] |  | 26.88% | 
34 |  |  | CCOc1cccc(COc2ccc(C(=O)Nc3ccc(N4CCN(C(=O)c5cccs5)CC4)cc3)cc2)c1 [NA-42, 4-((3-ethoxybenzyl)oxy)-N-(4-(4-(thiophene-2-carbonyl)piperazin-1-yl)phenyl)benzamide] |  |  | IP-10 induction in human monocyte-derived macrophages [2]: dose-dependent IP-10 induction; TRIF-dependency of IRF3 induction [3]: TRIF dependent
35 |  | 5.34 | ClCCCOc1ccc(-c2nc3cc(OCCCN4CCCC4)ccc3o2)cc1 [ND-94] |  | 5.09% | 

Row | Compound | pEC50 [1, 4] | pEC50 [1, 6] | J774 IRF % activation at peak ([1]; Mouse Reporter Cell Line) | J774 IRF % activation at peak [1, 5] | other results
36 | CCOc1cccc(COc2ccc(C(=O)Nc3ccc(N4CCN(C(=O)c5cccs5)CC4)cc3)cc2)c1 [NA42, 4-((3-ethoxybenzyl)oxy)-N-(4-(4-(thiophene-2-carbonyl)piperazin-1-yl)phenyl)benzamide] | 5.41 |  | 191.2% |  | 
37 | COc1ccc(C(=O)Nc2cc(-c3nc4cc(C)c(C)cc4o3)ccc2C)cc1[N+](=O)[O-] [ND13, N-(5-(5,6-dimethylbenzo[d]oxazol-2-yl)-2-methylphenyl)-4-methoxy-3-nitrobenzamide] |  | 6.02 |  | 220.5% | 
